Patent US6630161B1, “Adjuvant composition and methods for its use” (Ribi Immunochem Research, Inc., priority 1998, dated 2003)

Test: Histamine type response after intravenous administration of surfactants
Assay type: in vivo
Conditions: dogs

Row | Compound | response when administered intravenously
1 | CCCCCCCC/C=C\CCCCCCCC(=O)OCCOCC(OCCO)C1OCC(OCCO)C1OCCO (centres unmarked) [Tween 80] | histamine type response
2 | polysorbate 80 | histamine type response
